The record followed here is US20080242661A1, “Novel compounds useful for the treatment of degenerative & inflammatory diseases” (priority 2006, published 2008).

Bounds are passed on as bounds.

The first assay deals with T1, purified PDE1A enzyme (Homo sapiens, UniProt P54750). The experiment in a line: In vitro PDE1A primary screening assay (Cisbio cAMP dynamic htrf kit). It is filed as biochemical. As to conditions: 100 nM cAMP, read-out: inhibition of PDE1A (control compounds, primary screening). From the text:
For the primary screening, an assay using the cAMP dynamic htrf kit from Cisbio (catnr 62AM2PEB) was used. Its principle is based on HTRF® technology (Homogeneous Time-Resolved Fluorescence). The method is a competitive immunoassay between native cAMP and the cAMP labeled with XL665. The tracer binding is visualized by a monoclonal antibody against cAMP, labeled with Cryptate. The specific signal (i.e. energy transfer) is inversely proportional to the concentration of cAMP in the sample (see FIG. 1).
For the enzymatic reaction a mix of 20 μL is made with purified PDE1A enzyme, 100 nM cAMP and the compound (10 μM in a final concentration of 1% DMSO) in a black 384-plate. The reaction buffer is Tris 20 mM pH 7.4, 4 μg/mL calmodulin, 3 mM MgCl2, 1.5 mM CaCl2, 0.2 mg/mL BSA and 0.001% Brij-35. After an incubation of 30 minutes at room temperature, the reaction is stopped by the addition of 10 μL labelled cAMP-XL665 and 10 μL anti-cAMP-Cryptate. After 1 hour incubation at room temperature, the readout is performed on the Envision (excitation 360 nm; emission donor 615 nm emission acceptor 665 nm).
PDE1A hydrolyses cAMP into 5′AMP; this low cAMP concentration will result in a high signal. A PDE1A inhibitor will result in a decrease of the signal.
As a positive control we used 10 μM Vardenafil (100% inhibition), as negative control is used 1% DMSO (0% inhibition), as variable control 10 μM Zaprinast (+/−50% inhibition) is used and as negative control compound 10 μM Ro-20-1724 (0% inhibition). The positive and negative control were used to calculate z′ and PIN values.
All compounds were screened in single at 10 μM. The hit criterium was set at PIN 50 (50% inhibition).
Consider `CCCc1nc(C)c2c(=O)[nH]c(-c3cc(S(=O)(=O)N4CCN(CC)CC4)ccc3OCC)nn12` [Vardenafil, reference compound], for which the inhibition at 10 µM was determined as 100%.

Consider `CCCOc1ccccc1-c1nc2nn[nH]c2c(=O)[nH]1` [Zaprinast], for which the inhibition at 10 µM is around 50%.

The assay is the same for the next values; noted with them: 10 μM, 100 nM cAMP.
For `CCCCOc1cc(CC2CNC(=O)N2)ccc1OC` (centres unmarked) [Ro-20-1724], the “inhibition of PDE1A (control compounds, primary screening)” value turned out to be 0%.

The target of another assay is T1, purified PDE1A enzyme. As to the kind of experiment: In vitro PDE1A assay, dose response (Biomol Cyclic Nucleotide Phosphodiesterase Assay Kit, colorimetric). It is filed as biochemical. As to conditions: 10 μM; read-out: inhibition of PDE1A (positive control, dose response assay). The essentials:
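Purified PDE1A with 100 μM cAMP and 5′-nucleotidase, incubated 45 min at 37° C in Tris 20 mM pH 7.4 with calmodulin, MgCl2 and CaCl2; released phosphate read by malachite-green absorbance at 615 nm. Duplicate 8-point ⅓ dilutions from 20 μM in 1% DMSO; 10 μM vardenafil defines 100% inhibition.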
As to `CCCc1nc(C)c2c(=O)[nH]c(-c3cc(S(=O)(=O)N4CCN(CC)CC4)ccc3OCC)nn12` [Vardenafil, reference compound], the inhibition at 10 µM was found to be 100%.

The assay is the same for the next values; noted with them: 100 μM cAMP, 45 min at 37° C., 8 points from 20 μM, duplicate.
The compound `CCCc1nn(C)c2c(=O)[nH]c(N3CCc4cc(OC)c(OC)cc4C3C)nc12` (centres unmarked) [Example 37, 5-(6,7-dimethoxy-1-methyl-3,4-dihydroisoquinolin-2(1H)-yl)-1-methyl-3-propyl-1H-pyrazolo[4,3-d]pyrimidin-7(6H)-one] yielded an IC50 of 101 to 500 nM.

Turning to `CCCc1nn(C)c2c(=O)[nH]c(NCc3c(-c4ccccc4)noc3C)nc12` [Example 51, 1-methyl-5-((5-methyl-3-phenylisoxazol-4-yl)methylamino)-3-propyl-1H-pyrazolo[4,3-d]pyrimidin-7(6H)-one], the IC50 lay within 101 to 500 nM.

The compound `CCCc1nn(C)c2c(=O)[nH]c(N(Cc3cccc(N4CCOCC4)c3)CC(C)CCC)nc12` (centres unmarked) [Example 113, 1-methyl-5-((2-methylpentyl)(3-morpholinobenzyl)amino)-3-propyl-1H-pyrazolo[4,3-d]pyrimidin-7(6H)-one] came in with an IC50 below 100 nM.

Compound `CCCc1nn(C)c2c(=O)[nH]c(N(C)Cc3cccc(-c4ccncc4)c3)nc12` [Example 43, 1-methyl-5-(methyl(3-(pyridin-4-yl)benzyl)amino)-3-propyl-1H-pyrazolo[4,3-d]pyrimidin-7(6H)-one] returned an IC50 below 100 nM.

Compound `CCC(CC)CN(Cc1cccc(-n2cccn2)c1)c1nc2c(C(C)(C)C)nn(C)c2c(=O)[nH]1` [Example 121] showed an IC50 below 100 nM.

In the case of `CN(Cc1ccc(F)cc1)c1nc2c(C3CCCC3)nn(C)c2c(=O)[nH]1` [Example 70, 3-cyclopentyl-5-((4-fluorobenzyl)(methyl)amino)-1-methyl-1H-pyrazolo[4,3-d]pyrimidin-7(6H)-one], the IC50 is below 100 nM.

On to `CCCc1nn(C)c2c(=O)[nH]c(N(C)CCC(C)(C)C)nc12` [Example 110, 5-((3,3-dimethylbutyl)(methyl)amino)-1-methyl-3-propyl-1H-pyrazolo[4,3-d]pyrimidin-7(6H)-one], for which the IC50 was below 100 nM.

Consider `CCC(CC)CN(Cc1cccc(N2CCOCC2)c1)c1nc2c(C(C)(C)C)nn(C)c2c(=O)[nH]1` [Example 109, 3-tert-butyl-5-((2-ethylbutyl)(3-morpholinobenzyl)amino)-1-methyl-1H-pyrazolo[4,3-d]pyrimidin-7(6H)-one], for which the IC50 was below 100 nM.

`CCCc1nn(C)c2c(=O)[nH]c(NCc3cccc(OCCN4CCOCC4)c3)nc12` [Example 55, 1-methyl-5-(3-(2-morpholinoethoxy)benzylamino)-3-propyl-1H-pyrazolo[4,3-d]pyrimidin-7(6H)-one]: the IC50 fell in the range of 101 to 500 nM.

As for `CCCc1nn(C)c2c(=O)[nH]c(N(C)Cc3ccccc3)nc12` [Example 33, 5-(benzyl(methyl)amino)-1-methyl-3-propyl-1H-pyrazolo[4,3-d]pyrimidin-7(6H)-one], the IC50 fell in the range of 101 to 500 nM.

In turn, `CCCc1nn(C)c2c(=O)[nH]c(N3CCCN(Cc4c(F)cccc4Cl)CC3)nc12` [Example 1, 5-(4-(2-chloro-6-fluorobenzyl)-1,4-diazepan-1-yl)-1-methyl-3-propyl-1H-pyrazolo[4,3-d]pyrimidin-7(6H)-one] had an IC50 above 500 nM.

As to `CCCc1nn(C)c2c(=O)[nH]c(N(C)Cc3ccc(Cl)c(Cl)c3)nc12` [Example 2, 5-((3,4-dichlorobenzyl)(methyl)amino)-1-methyl-3-propyl-1H-pyrazolo[4,3-d]pyrimidin-7(6H)-one], the IC50 is below 100 nM.

For `CCCc1nn(C)c2c(=O)[nH]c(N(C)Cc3cc(-c4ccccc4)nn3C)nc12` [Example 38, 1-methyl-5-(methyl((1-methyl-3-phenyl-1H-pyrazol-5-yl)methyl)amino)-3-propyl-1H-pyrazolo[4,3-d]pyrimidin-7(6H)-one], the IC50 was below 100 nM.

As to `CCCc1nn(C)c2c(=O)[nH]c(NCc3ccc4ccn(C)c4c3)nc12` [Example 69, 1-methyl-5-((1-methyl-1H-indol-6-yl)methylamino)-3-propyl-1H-pyrazolo[4,3-d]pyrimidin-7(6H)-one], the IC50 fell in the range of 101 to 500 nM.

In the case of `CCCc1nn(C)c2c(=O)[nH]c(N3CCC(C(F)(F)F)CC3)nc12` [Example 60, 1-methyl-3-propyl-5-(4-(trifluoromethyl)piperidin-1-yl)-1H-pyrazolo[4,3-d]pyrimidin-7(6H)-one], the IC50 was above 500 nM.

Regarding `CCn1nc(C(C)(C)C)c2nc(N(Cc3cccc(N4CCOCC4)c3)CC(C)C)[nH]c(=O)c21` [Example 124, 3-tert-butyl-1-ethyl-5-(isobutyl(3-morpholinobenzyl)amino)-1H-pyrazolo[4,3-d]pyrimidin-7(6H)-one], the IC50 was above 500 nM.

On to `CN(Cc1ccc(Cl)cc1)c1nc2c(C3CCCC3)nn(C)c2c(=O)[nH]1` [Example 71, 5-((4-chlorobenzyl)(methyl)amino)-3-cyclopentyl-1-methyl-1H-pyrazolo[4,3-d]pyrimidin-7(6H)-one], for which the IC50 is below 100 nM.

Compound `CCCc1nn(C)c2c(=O)[nH]c(N(C)Cc3ccc(C(F)(F)F)cc3)nc12` [Example 16, 1-methyl-5-(methyl(4-(trifluoromethyl)benzyl)amino)-3-propyl-1H-pyrazolo[4,3-d]pyrimidin-7(6H)-one] returned an IC50 of 101 to 500 nM.

The compound `CCCc1nn(C)c2c(=O)[nH]c(N(Cc3cccc(-n4cccn4)c3)CC(C)(C)C)nc12` [Example 119] yielded an IC50 below 100 nM.

On to `CC(C)CN(Cc1cccc(-n2cccc2)c1)c1nc2c(C(C)(C)C)nn(C)c2c(=O)[nH]1` [Example 100], for which the IC50 was below 100 nM.

On to `CCCc1nn(C)c2c(=O)[nH]c(NCc3cccc(N4CCCCC4)c3)nc12` [Example 11, 1-methyl-5-(3-(piperidin-1-yl)benzylamino)-3-propyl-1H-pyrazolo[4,3-d]pyrimidin-7(6H)-one], for which the IC50 lay in the range of 101 to 500 nM.

Compound `CCCN(CCC)c1nc2c(C3CCCC3)nn(C)c2c(=O)[nH]1` [Example 78, 3-cyclopentyl-5-(dipropylamino)-1-methyl-1H-pyrazolo[4,3-d]pyrimidin-7(6H)-one] came in with an IC50 below 100 nM.
